From publication PMC12584752, “Covalent fragment screening to inhibit the E3 ligase activity of bacterial NEL enzymes SspH1 and SspH2” (RSC Chemical Biology, 2025)

Target: SspH1 (161–700) (Salmonella typhimurium, UniProt D0ZVG2)
Experiment: Round 1 intact protein LC-MS covalent fragment labelling screen and dilution series
Format: binding
Set-up: Recombinant IpaH9.8 (21–545) and SspH1 (161–700) were incubated at 0.5 μM; His-tag (N, cleaved yes); made in house; host or cells: E. coli BL21
Conditions: round 1 screen; 0.5 μM SspH1, 50 μM fragments, 24 hours at 4 °C
Description: A diverse library of 227 compounds with chloroacetamide warheads, featuring a diversity of molecular weight (162–321 Da) and clog P (−1.4 to 3.4) (Table S1), were screened against Salmonella and Shigella NEL E3 ligases using our intact protein liquid chromatography mass spectrometry (LC-MS) platform as previously described.[39,40] Briefly, recombinant SspH1 (161–700[30]) and IpaH9.8 (21–545[29]) (Fig. 1A and B) were incubated with 50 μM fragments for 24 hours at 4 °C before analysis by LC-MS (Fig. 1C). Raw counts were deconvoluted and the labelling percentage calculated by detection and comparison of protein and protein-fragment molecular weights.
Fig. 1 Intact protein LCMS screening of covalent fragment library against NEL proteins. (A) Cartoon depicting conserved NEL E3 ligase domains; (B) overlaid structures of SspH1 (blue, PDB 9H6W[30]) and IpaH9.8 (green, PDB 6LOL[29]) aligned on NEL domain; (C) workflow of covalent fragment screening using intact LC-MS; (D) fragment labelling percentages for SspH1 and IpaH9.8 with fragments 1–3 highlighted. Recombinant IpaH9.8 (21–545) and SspH1 (161–700) were incubated at 0.5 μM with 50 μM fragments for 24 hours at 4 °C, before fragment labelling was analysed by intact LC-MS; (E) chemical structures of fragments 1–3.
We next analysed the potency of compounds 4–10 against SspH1. The seven compounds were obtained as purified compounds (Table S2) and screened against SspH1 by intact LC-MS (Fig. 3A) with two-fold serial dilution (100–6.25 μM). To confirm which of the two cysteines in the SspH1 161–700 construct were labelled, we repeated the concentration response experiment with a catalytic cysteine mutant of SspH1 (C492K) (Fig. 3B). The complete abrogation of labelling confirmed that all […] compounds labelled the catalytic cysteine of SspH1.
1 μM IpaH9.8 or SspH1 were incubated with […] fragments for 24 hours at 4 °C, in 25 mM HEPES pH 7.5, 50 mM NaCl buffer. Intact protein LC-MS was performed as previously described.[40] The following deconvolution conditions were used for recombinant proteins studied in this work:
Dilution series experiments were performed as for 1st round screening. 1 μM OTUD4, OTUD5 or 0.5 μM HOIL, UbcH5A, SspH2, SspH1 C492K were incubated with 100–6.25 μM compounds for 24 hours at 4 °C, in 25 mM HEPES pH 7.5, 50 mM NaCl buffer. Intact protein LC-MS was performed as previously described.[40] The following deconvolution conditions were used for recombinant proteins studied in this work: […]

Chain of SspH1 (161–700) (D0ZVG2 161-700): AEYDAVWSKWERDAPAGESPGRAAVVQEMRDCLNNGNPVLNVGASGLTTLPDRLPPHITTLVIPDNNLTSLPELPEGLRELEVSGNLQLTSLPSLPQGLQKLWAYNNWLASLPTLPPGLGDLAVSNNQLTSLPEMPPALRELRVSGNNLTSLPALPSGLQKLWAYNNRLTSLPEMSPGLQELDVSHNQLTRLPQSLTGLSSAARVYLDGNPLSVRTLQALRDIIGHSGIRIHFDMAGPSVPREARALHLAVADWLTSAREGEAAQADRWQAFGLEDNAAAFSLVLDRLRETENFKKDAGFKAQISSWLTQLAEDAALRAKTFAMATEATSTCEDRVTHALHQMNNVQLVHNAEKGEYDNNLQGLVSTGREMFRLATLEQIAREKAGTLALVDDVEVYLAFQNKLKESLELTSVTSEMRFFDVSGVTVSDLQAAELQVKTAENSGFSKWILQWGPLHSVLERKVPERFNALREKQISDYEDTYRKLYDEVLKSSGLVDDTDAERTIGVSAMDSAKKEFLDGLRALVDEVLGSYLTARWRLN

Structure (SMILES)	protein labelling percentage
Cc1cccn2cc(CCNC(=O)CCl)nc12.Cl [fragment 3]	greater than 30%
Cl.O=C(CCl)N1CCC(n2nc3ccccc3n2)CC1 [fragment 2]	greater than 30%
O=C(CCl)N1CCCN(C(=O)c2ccc(Cl)cc2)CC1 [fragment 1]	greater than 30%
